Tests used:
Format in all cases: cell-based
human skin explants [1] = test: Melanogenesis in human skin living explants (Masson's Fontana staining, image analysis); settings: for melanogenesis: compared with chronic UVA; for increase of melanin content in the basal layer of the epidermis (image analysis, stained surface): D6, explants phototype II, p<0.01
Protocol: (§1) Human skin explants of an average diameter of 12 mm (±1 mm) were prepared on an abdoplasty coming from a person (reference: P2237AB47—phototype II) or person (reference P2196-AB61, phototype III). The explants were kept in survival in BEM culture medium (BIO-EC's Explants Medium) at 37° C. in a humid, 5%-CO2 atmosphere.
(§2) The Ambermax was diluted in 0.1% ethanol at the following concentrations: 0.3 μM, 1 μM, 3 μM, 10 μM, 15 μM, 30 μM and 100 μM. The diluted solutions were stored at 4° C. during the study.
(§3) The explants were treated for 10 days with Ambermax (see products application below) or with no treatment.
(§4) On day 0 (DO), day 3 (D3), day 5 (D5), day 7 (D7) and day 10 (D10), the tested products (compounds for use in the invention) were 1) applied topically using a small spatula based on 2 μl per explant (2 mg per cm^2) at the indicated concentrations, 2) applied intradermatically by injections into the dermis using a syringe with 20 μL of product for each explant or 3) applied systemically by dilutions of the compound of invention in the culture media at the indicated concentration. […] The culture medium was half renewed (1 ml/well) on day 3, day 5, day 7 and day 10.
(§5) On day 0 (D0), D2, D3, D6, and D8, the tested products (compounds for use in the invention) were applied topically using a small spatula on the basis of 2 μl per explant (2 mg per cm^2). […] The culture medium was half renewed (1 ml/well) on D2, D3, D6 and D8.
(§6) After fixation for 24 hours in buffered formalin solution, the samples were dehydrated and impregnated in paraffin using a Leica PEARL dehydration automat. The samples were then paraffin-embedded using a Leica EG 1160 embedding station. 5-μm-thick sections of paraffin-embedded formol fixed sections were realized using a Leica RM 2125 Minot-type microtome, and the sections were then mounted on Superfrost® Plus glass slides. Microscopical observations were realized using a Leica DMLB, a BX43 or BX63 Olympus microscope. Pictures were digitized with an Olympus DP72 or DP74 camera and the Cell^D or cellSens data storing software.
Melanin was visualized after silver impregnation according to Masson's Fontana staining method on formalin-fixed paraffin-embedded (FFPE) skin sections. The staining was assessed by microscopical observation and image analysis of specific batches. Concerned batches: T0, (TUV, P1→P10) on D5 or D6 and D10.
The images analyses were performed on all the images of each batch, according to the following method using Cell^D or cellSens software:
For each batch of explants, the percentage of the region of interest covered by the staining (stained surface percentage) is determined by image analysis according to the previously described process.
Stained surfaces comparisons: the stained surface percentage (Surf %) for each treatment is compared to the untreated condition=>P vs T. The same comparisons are made for the induced batches with or without treatment=>T vs TUV.
(§7) The effects ex vivo was shown by treating human biopsies for 10 days (human living explants: 12 mm+/−1, donor, skin type III) with a systemic application, intradermic injections or a topical application of compounds according to embodiments of the invention (Ambermax). Concentrations of 1, 5 and 10 μM of this compound were used for systemic application and intradermic injections on the human explants. For topical application, biopsies were treated with 10, 30, and 100 μM of Ambermax. As control, non-treated explants or/and explants exposed to chronic UVA-irradiations were used as described in the experimental procedures.

human skin explants [2] = test: as above; settings: systemic treatment, 3 and 5 μM, after 5 days, compared with chronic UVA
human skin explants [3] = test: Cellular viability of human skin living explants (Masson's trichrome, Goldner variant)
Protocol: as §1, §2, §3, §4, §5, §6
The cell viability of epidermal and papillary dermal structures was observed on formalin-fixed paraffin-embedded (FFPE) skin sections after Masson's trichrome staining, Goldner variant. The cell viability was assessed by microscopical observation. Concerned batches: T0, (TUV, P1→P10) on D5 or D6 and D10.
as §7

Substance: Ambermax [Compound 16]
- enhancement of melanogenesis (microscopical observation and semi-quantification of melanin staining) (human skin explants [1]; FFPE skin sections, without UVs exposure): very effective to enhance melanogenesis without UVs exposure
- most effective concentration (melanogenesis) (human skin explants [1]; intradermal injection for 10 days): 1 µM
- melanogenesis (human skin explants [1]; intradermal injection, 1 μM and 10 μM, after 5 days): increase of melanogenesis slightly weaker than that achieved with chronic UVA
- melanin content present in the basal layer in skin explants (human skin explants [1]; second batch of explants, phototype II, topical): induced an increase of the melanin content present in the basal layer
- most efficient concentration to stimulate melanin synthesis (human skin explants [1]; systemic treatment, day 10): 1 µM
- increase of melanin content in the basal layer of the epidermis (image analysis, stained surface) (human skin explants [1]; topical 10 μM): 152%
- increase of melanin content in the basal layer of the epidermis (image analysis, stained surface) (human skin explants [1]; topical 15 μM): 160%
- melanogenesis (human skin explants [1]; topical treatment, 10 μM, 30 μM and 100 μM, 10 days): moderate melanogenesis induction, slightly lower than that obtained with of chronic UVA
- melanogenesis (human skin explants [1]; topical treatment, 10 μM, 5 days): increase in melanogenesis comparable to that obtained with chronic UVA irradiation
- melanogenesis (human skin explants [2]): rise of melanogenesis equivalent to the one obtained with a chronic UVA irradiation
- explant toxicity (human skin explants [3]; 0.3-100 μM, 3 different ways of application): doesn't induce explant toxicity
- explant viability (human skin explants [3]; D5 and D10, 3 concentrations, 3 methods of application (topical, systemic, intradermal), skin type III): no significant alterations of explant viability
- explant alterations (human skin explants [3]; application of 100 μM, D10): very slight alterations
- alteration of the papillary dermis (human skin explants [3]; topical administration, 100 μM): no modification of the papillary dermis
- explant viability in the epidermis (macroscopic evaluation) (human skin explants [3]; topical administration, 100 μM): very slight decrease in the viability

Reference: US20240058240A1, “COMPOUNDS AS SELF-TANNING SUBSTANCES AND TANNING COMPOSITIONS THEREOF” (CHEMCOM S.A., priority 2020, published 2024)
